Earlier results on 1 compound are cited in patent US20070259016A1, “Method of treating crops with submicron chlorothalonil” (priority 2006, published 2007).

For data set [1] the following is noted: acid and neutral aqueous preparations.
The conditions of data set [2]: at 170 C.

On to `N#Cc1c(Cl)c(Cl)c(Cl)c(C#N)c1Cl` [chlorothalonil, 2,4,5,6-tetrachloro-1,3-dicyanobenzene], for which the “stability in aqueous preparations” value in data set [1] is given as “relatively stable”. The volatility in data set [2] was 9.2 mmHg. Besides, the “solubility in acetone and xylene” value (acetone and xylene) was “slightly soluble”. Moreover, the solubility in water (water) is 0.6-1.2 ppm.
